# Data taken from the supplement of paper PMC10307832.
# Columns and labels:
# Assay in all cases: relative viability (nuclei count vs DMSO), 5 days (fraction); higher = more cells survive
# Vandetanib = compound: COc1cc2/c(=N/c3ccc(Br)cc3F)nc[nH]c2cc1OCC1CCN(C)CC1 [Vandetanib]
# How it was run: (§1)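 Hoechst staining, done together with fixation and permeabilisation, marked nuclei for 4× imaging and MetaXpress counting. This followed 5 days without medium change after lung cancer cell lines, kept overnight at 37 °C in 1536-well plates, were pinned with five library-drug doses (not always all listed) spaced by √10 on vehicle-anchored plates. Viability is the ratio of treated-well to vehicle-well nuclei, expressed as a median across plates. Plates passed only at control CV below 25% with at least one doubling.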
# CUDC-101 = compound: C#Cc1cccc(Nc2ncnc3cc(OC)c(OCCCCCCC(=O)NO)cc23)c1 [CUDC-101]
# How it was run: as §1
# [1] = compound: C1=CC=C2C(=C1)N=C(S2)C(C#N)C3=NC(=NC=C3)NCCC4=CN=CC=C4
# How it was run: as §1
# NVP-TAE684 = compound: COc1cc(N2CCC(N3CCN(C)CC3)CC2)ccc1Nc1ncc(Cl)c(Nc2ccccc2S(=O)(=O)C(C)C)n1 [NVP-TAE684]
# How it was run: as §1
Cell Line,relative viability (Vandetanib; 0.02 µM),relative viability (Vandetanib; 0.06325 µM),relative viability (Vandetanib; 0.2 µM),relative viability (Vandetanib; 0.6325 µM),relative viability (Vandetanib; 2 µM),relative viability (CUDC-101; 0.01 µM),relative viability (CUDC-101; 0.03162 µM),relative viability (CUDC-101; 0.1 µM),relative viability (CUDC-101; 0.3162 µM),relative viability (CUDC-101; 1 µM),relative viability ([1]; 0.005 µM),relative viability ([1]; 0.01581 µM),relative viability ([1]; 0.05 µM),relative viability ([1]; 0.1581 µM),relative viability ([1]; 0.5 µM),relative viability (NVP-TAE684; 0.2 µM),relative viability (NVP-TAE684; 0.6325 µM),relative viability (NVP-TAE684; 2 µM)
NCI-H3122,0.928,1,1.02,0.984,0.978,0.942,0.995,1.03,1.01,0.994,0.958,0.977,0.98,1.03,0.991,0.236,0.164,0.126
NCI-H661,0.943,0.989,0.967,1.05,0.901,1.01,0.907,1.02,0.945,0.637,1.05,1.02,0.941,0.998,1.02,0.99,0.972,0.95
NCI-H441,1.03,0.948,0.983,1.15,0.939,1.04,1.09,0.981,1.13,0.844,,1.12,1,1.27,0.871,0.898,1.15,0.587
NCI-H596,0.937,0.876,0.954,0.993,1,0.97,1.01,1.04,1.05,0.88,0.791,0.962,1.01,1.07,0.928,0.959,1.03,
PC-3 [JPC-3],1,0.922,0.983,0.653,0.507,1.05,0.972,0.522,0.542,0.431,0.85,0.966,1.01,1.15,1.07,1.08,0.945,0.984
NCI-H1993,1,0.922,0.944,0.871,0.754,1.04,0.916,0.833,0.95,0.664,0.901,0.882,0.929,1.04,0.842,0.813,0.885,0.703
NCI-H1355,0.997,0.892,1.01,1.02,0.957,1.03,0.957,0.967,0.976,0.883,0.934,0.931,0.986,1.1,0.912,0.961,0.921,0.75
A549,1,0.894,0.913,0.907,0.922,1.04,0.967,1,1.04,0.799,0.914,1.03,0.969,1.05,0.901,1.1,0.951,0.585
NCI-H1648,0.862,0.824,0.745,0.915,0.561,1.15,0.59,0.758,0.741,0.376,0.704,0.812,0.764,1.19,0.75,0.715,0.713,0.363
NCI-H23,1.09,0.975,0.894,0.926,0.901,1.13,1,1.1,1.11,0.922,0.691,0.941,0.967,1.24,1.02,0.989,0.796,0.538
CAL-12T,1.07,0.909,0.954,0.885,0.729,1.16,1.03,0.993,1.05,0.951,1,0.912,0.962,1.07,0.798,0.904,0.956,0.466
ABC-1,0.827,0.917,0.844,0.908,0.628,0.95,0.978,0.938,0.812,0.453,0.974,0.826,1.08,1.07,0.835,0.969,0.624,0.537
HCC-44,0.939,0.965,1.02,0.998,0.966,0.858,1.03,1.02,0.951,0.968,0.999,1.03,1.04,1.05,1,1.09,0.969,0.749
NCI-H1755,1.02,0.952,0.975,0.973,0.96,0.998,0.987,1.02,1.04,0.98,1.03,1.15,0.985,1.09,0.99,1.04,1.04,0.892
SK-LU-1,1.01,0.791,1.02,1.07,0.984,1.19,0.988,1.07,0.963,0.87,0.783,1.21,1.03,1.18,0.948,1.12,0.962,0.733
NCI-H2126,0.96,0.91,0.965,0.906,0.903,1.04,0.957,1.03,0.94,0.81,0.912,0.977,0.946,1.05,0.864,0.991,0.959,0.684
NCI-H650,1.02,1,0.907,1.06,0.403,1.13,1.02,1.14,0.98,0.849,0.86,0.782,1.04,1.14,1.02,1.01,0.662,0.622
201T,0.951,0.951,1.01,0.934,0.941,0.984,0.97,0.964,1.03,0.829,0.963,0.876,1.01,1.03,0.89,1.05,0.958,0.875
